The values below come from US20230090439A1, “PHARMACEUTICAL COMPOSITION FOR CONTROLLING PARASITES ON NON-HUMAN ORGANISMS” (priority 2020, published 2023).

Structures are written as SMILES.

A short description of the data set: Solubility experiments (saturation solubility in solvents, HPLC-UV of supernatant). The data set is classed as physicochemical. The conditions noted are these: for Solubility in the solvent mixture of the composition according to the invention (in words): isopropanol/propylene carbonate 65:35, room temperature. The source says: Dissolution experiments for active ingredients I-1, I-2, I-3 and I-4 in solvents for a pharmaceutical composition according to the invention are presented below. For biological effect, the active ingredient should be incorporated at a certain dose or amount in the formulation, in the ideal case it should be a solution in the formulation such that the active ingredient is therefore dissolved in the solvent. A certain minimum solubility is required for the solvent since the application volume is limited.
In this case, 10 g of the appropriate solvent or solvent mixture were initially charged and as much active ingredient was added until the solution is saturated. Isopropanol (IPA) and propylene carbonate (PPC) were used as solvents. The samples were stirred for 3 days. Should the active ingredient become fully dissolved, active ingredient was again added. Subsequently, the samples were stored for a further 4 days at the relevant temperature and centrifuged in order to remove the undissolved particles. The supernatants were analyzed in each case for active ingredient content by HPLC-UV.
Furthermore, solubility experiments with three further active ingredients from the class of fluorinated heteroarylamides in different solvents were carried out. The solubility experiments were carried out analogously to the experiments described above, however only at room temperature and the solvent mixture isopropanol/propylene carbonate 65:35% [m/m] was selected.
Experiments with solvent systems were also carried out in which the first solvent comprised two alcohols.

[1] abbreviates: Isopropanol, room temperature (Table 2).
Setting [2] is: Isopropanol/propylene carbonate 65/35, room temperature (Table 2).
[3] abbreviates: Propylene carbonate, room temperature (Table 2).

Turning to `O=C(NC1CC1)c1cc(-c2cnn(-c3c(Cl)cc(C(F)(C(F)(F)F)C(F)(F)F)cc3C(F)(F)F)c2)cnc1Cl` [I-3, 2-chloro-5-[1-[2-chloro-4-[1,2,2,2-tetrafluoro-1-(trifluoromethyl)ethyl]-6-(trifluoromethyl)phenyl]-1H-pyrazol-4-yl]-N-cyclopropyl-3-pyridinecarboxamide], the “Solubility in the solvent mixture of the composition according to the invention (in words)” value (shortened to “Solubility in the solvent mixture”) is reported as “very good solubilities”. For the same compound, the Saturation solubility under setting [1] was 4.18 % [w/w]. The same compound yielded a Saturation solubility under setting [2] of 17.57 % [w/w]. The Saturation solubility under setting [3] was found to be 4.89 % [w/w].
For the compound `CN(C(=O)c1cc(-c2cnn(-c3c(Cl)cc(C(F)(C(F)(F)F)C(F)(F)F)cc3Cl)c2)cnc1Cl)C1CC1` [I-1, 2-chloro-N-cyclopropyl-5-[1-[2,6-dichloro-4-[1,2,2,2-tetrafluoro-1-(trifluoromethyl)-ethyl]phenyl]pyrazol-4-yl]-N-methylpyridine-3-carboxamide], the Saturation solubility reads like this: (Ethanol (Table 3)) 2.76 % [ w/w]; (Ethanol/glycerol carbonate 65:35 (Table 3)) 6.48 % [ w/w]; (Ethanol/propylene carbonate 65:35 (Table 3)) 9.45 % [ w/w]; (Glycerol carbonate (Table 3)) 0.15 % [ w/w]; (Isopropanol (Table 3)) 1.56 % [ w/w]; (Isopropanol/glycerol carbonate 65:35 (Table 3)) 5.98 % [ w/w]. Where the note is “Propylene carbonate (Table 3)”, this compound showed a Saturation solubility of 2.43 % [ w/w]. Besides, the Solubility was more than 5 % [w/w] (Ethanol/propylene carbonate/glycerol carbonate 65:17.5:17.5), more than 5 % [w/w] (Isopropanol/ethanol/glycerol carbonate 32.5:32.5:35), more than 5 % [w/w] (Isopropanol/ethanol/propylene carbonate 32.5:32.5:35) and more than 5 % [w/w] (Isopropanol/propylene carbonate/glycerol carbonate 65:17.5:17.5). For the same compound, the “Saturation concentration of the solution” value runs as follows: (IPA/PPC 25/75 23° C.) 7.58 %[w/w]; (IPA/PPC 35/65 23° C.) 8.79 %[w/w]; (IPA/PPC 50/50 23° C.) 9.26 %[w/w]; (IPA/PPC 60/40 23° C.) 8.60 %[w/w]; (IPA/PPC 65/35 5° C.) 6.32 %[w/w]; (IPA/PPC 65/35 23° C.) 8.31 %[w/w]. The “Saturation concentration of the solution” value by setting is: (IPA/PPC 70/30 23° C.) 7.49 %[w/w]; (IPA/PPC 75/25 23° C.) 6.70 %[w/w]; (IPA/PPC 80/20 23° C.) 5.90 %[w/w]; (IPA/PPC 90/10 23° C.) 3.74 %[w/w]; (Isopropanol 5° C.) 0.98 %[w/w]; (Isopropanol 23° C.) 1.56 %[w/w]. Besides, the “Saturation concentration of the solution” value (Propylene carbonate 5° C.) was determined as 1.80 %[w/w] and the “Saturation concentration of the solution” value (Propylene carbonate 23° C.) was found to be 2.43 %[w/w]. Further, the “Solubility in the mixture of isopropanol and propylene carbonate compared to the pure solvents (in words)” value (mixture of isopropanol and propylene carbonate vs pure solvents) is given as “significant solubility increase”. Also, under “three-component alcohol/carbonate solvent systems of Table 4”, the “Solubility in the solvent systems of Table 4 (in words)” value is given as “good solubilities”.
As to `O=C(NC1CC1)c1cc(-c2cnn(-c3c(Br)cc(C(F)(C(F)(F)F)C(F)(F)F)cc3OC(F)(F)F)c2)cnc1Cl` [I-4], the “Solubility in the solvent mixture” value is listed as “very good solubilities”. Also, the Saturation solubility under setting [1] was 13.42 % [w/w]. This compound also had a Saturation solubility under setting [2] of 29.38 % [w/w]. The same compound returned a Saturation solubility under setting [3] of 11.76 % [w/w].
`O=C(NC1CC1)c1cc(-c2cnn(-c3c(Cl)cc(C(F)(C(F)(F)F)C(F)(F)F)cc3OC(F)(F)F)c2)cnc1Cl` [I-2]: the “Solubility in the solvent mixture” value is listed as “very good solubilities”. The compound further gave a Saturation solubility under setting [1] of 6.99 % [w/w]. Also, the Saturation solubility under setting [2] was found to be 24.20 % [w/w]. Besides, the Saturation solubility under setting [3] stood at 5.34 % [w/w].
